The source made the active and inactive calls. The rule behind the calls is not given here.
Assays:
[1] = Tmax in C57BL/6J mouse at 20 mg/kg, po administered as single dose; type: ADME, organism-based; design: dose 20 mg/kg, route oral; conditions: in vivo
[2] = Half life in C57BL/6J mouse at 20 mg/kg, po administered as single dose; type: ADME, organism-based; design: dose 20 mg/kg, route oral; conditions: in vivo
[3] = Cmax in C57BL/6J mouse at 20 mg/kg, po administered as single dose; type: ADME, organism-based; design: dose 20 mg/kg, route oral; conditions: in vivo
Mus musculus [4] = assay: Antidiabetic activity against C57BL/6J mouse assessed as reduction serum glucose AUC levels at 20 mg/kg, po measured up to 120 mins by IPGTT method; type: functional, organism-based; design: dose 20 mg/kg
[5] = Oral bioavailability in C57BL/6J mouse at 20 mg/kg administered as single dose; type: ADME, organism-based; conditions: in vivo
Mus musculus [6] = assay: Antidiabetic activity against C57BL/6J mouse assessed as reduction serum glucose AUC levels at 20 mg/kg, po measured up to 30 mins by IPGTT method; type: functional, organism-based; design: dose 20 mg/kg
[7] = Elimination rate constant in C57BL/6J mouse at 20 mg/kg administered as single dose; type: ADME, organism-based; design: dose 20 mg/kg; conditions: in vivo
[8] = AUC (0 to alpha) in C57BL/6J mouse at 20 mg/kg, po administered as single dose; type: ADME, organism-based; design: dose 20 mg/kg, route oral; conditions: plasma
Mus musculus [9] = assay: Antidiabetic activity against C57BL/6J mouse assessed as reduction serum glucose AUC levels at 20 mg/kg, po measured up to 60 mins by IPGTT method; type: functional, organism-based; design: dose 20 mg/kg
Mus musculus [10] = assay: Antidiabetic activity against C57BL/6J mouse assessed as reduction serum glucose AUC levels at 20 mg/kg, po measured up to 240 mins by IPGTT method; type: functional, organism-based; design: dose 20 mg/kg

| Structure (SMILES) | Tmax [1] [min] | half-life [2] [min] | Cmax [3] [ng/mL] | Activity (Mus musculus [4]) | bioavailability [5] [%] | Activity (Mus musculus [6]) | k el [7] [s⁻¹] | AUC [8] [ng·h/mL] | Activity (Mus musculus [9]) | Activity (Mus musculus [10]) |
| --- | --- | --- | --- | --- | --- | --- | --- | --- | --- | --- |
| N#C[C@@H]1CCCN1C(=O)CCCNC(=O)c1ccc(C(F)(F)F)cc1 | 16.8 | 59.4 | 5900 | inactive | 63.1 | Active | 0.000228 | 6890 | Active | inactive |
| N#Cc1ccc(NCCNCC(=O)N2CCC[C@H]2C#N)nc1 | 19.2 | 52.8 | 6200 | inactive | 65 | Active |  | 6490 | Active | inactive |
| N#Cc1ccc(C(=O)NCCCC(=O)N2CCC[C@H]2C#N)cc1 | 17.4 | 479 | 7100 | Active | 72.5 | Active | 3.06e-05 | 14300 | Active | Active |

Source: ChEMBL document CHEMBL2086250, “Long-acting peptidomimetics based DPP-IV inhibitors” (Bioorg Med Chem Lett, 2012)
